From paper PMC4341462, “Human RNASET2 derivatives as potential anti-angiogenic agents: actin binding sequence identification and characterization” (Oncoscience, 2014)

Legend:
[1] = target: T1, Actin from rabbit muscle (Sigma A2522) (Oryctolagus cuniculus, UniProt P68135); assay: Surface plasmon resonance (BIAcore 3000) of actin binding; conditions: actin on CM5 chip, amine coupling, 5 concentrations, 10 μl/min, 25°C
T1 construct: purchased Sigma A2522; host or cells: rabbit muscle (tissue-purified)
Protocol: SPR was performed on a BIAcore 3000 instrument (BIAcore, Uppsala, Sweden). Actin was diluted in 100 mM CH3COONa pH 4.6 to a final concentration of 20μg/ml (200μl total) resulting in ~1ng immobilized actin on a CM5 BIAcore sensor chip (GE Healthcare Bio-Sciences AB) using the standard BIAcore amine coupling chemistry protocol. The CM5 chip allows four separate flow cells to be operated in the BIAcore 3000 instrument used in these experiments. Coupling is achieved by activating the surface of the sensor chips with equal volumes of 50 mM N-hydroxysuccimide (NHS)/200 mM Nethyl-N-(3-[…])-carboiimide (EDC) (BIAcore, AB, Uppsala, Sweden) to form activated carboxyl groups. In the BIAcore protocol the binding is believed to be between carboxyl groups on the surface and amine groups on the protein. The actin solution (15 μg/ml) was then run over the chip for 5 min at a rate of 10 μl/min, where the amine groups on protein react with the activated esters. In the final stage of immobilization, the surface was blocked by 1M ethanol amine, pH 8.0. The binding assay was performed by injecting the hRNASET2, trT2-50, trT2-50m or peptides solutions in running buffer (HBS-10mM Hepes, 150mM Sodium Chloride, 3mM EDTA, 0.005% Polysorbate 20) at 5 different concentrations at a flow rate of 10 μl/min at 25°C. Injections were performed simultaneously over all four channels and blank surface a plain dextran matrix (channel 1) was used as control. The net signal was obtained by subtracting the blank signal from the signal of the immobilized surface. The association phase for protein or peptides binding to actin was followed for 4 min, and dissociation phases were monitored for 3 min. Surface regeneration between consecutive binding cycles included a 1 min injection of 1 mM NaOH. The response was monitored as a function of time (sensorgram) at 25°C. Multi-concentration data were globally fit using BIA evaluation 3.2 software.
The strength of a two molecule interaction is characterized by the equilibrium dissociation (binding) constant KD =[P][L]/[PL], where [P] is the concentration of free protein (or peptide), [L] the concentration of ligand and [PL] the concentration of the complex. At equilibrium, KD is related to the rate of complex formation (described by the association rate constant, ka) and the rate of breakdown (described by the dissociation rate constant, kd ), such that KD =[…]. A high affinity interaction is characterized by a low KD, rapid recognition and binding by high ka, and stability of complex formation by low kd.

actin = actin (Oryctolagus cuniculus, UniProt P68135); assay: Actin binding solid phase assay (ELISA); conditions: from 500 ng/well, 1 h at 37°C, discussion also refers to BIAcore
Excerpt: For further insight on the actin binding site within the hRNASET2 protein sequence we tested 29 suspected peptides for their ability to bind actin. The actin-binding capability of the 29 synthetic peptides was compared to the binding capability of trT2-50 using a solid phase actin binding assay. […] We next tested the interaction kinetics to evaluate the interaction nature as described for trT2-50 and trT2-50m. […] In addition, there is a linear relation between the protein concentration and the maximal (steady-state) response for peptides A103-Q159 and K108-K133, indicating the pseudo-first-order regime in relation to the immobilized actin.
96-well plates (MaxiSorp® flat-bottom 96-well plate, Fisher Scientific Inc., Fair Lawn, NJ) were coated with 500 ng actin in 100 μl carbonate-bicarbonate buffer (pH 9.5) for 1 h at 37°C. The plate was washed once with TBS and then blocked with 3% BSA in 200 μl TBS buffer at 37°C, for 1 h. Wells were then washed once with 250 μl TBS. trT2-50, trT2-50m or each of the 29 peptides were added at 1:2 dilutions in 100 μl TBS, starting from 500 ng/well, incubated for 1 h at 37°C and then washed three times with TBS containing 0.1% Tween-20 (TBST). […] Absorbance at 655 nm was measured 10 min thereafter using a Power Wave 200 Microplate Scanning Spectrophotometer (Bio-Tek Instrument, Winooski, VT). Affinity was evaluated by double reciprocal plot.

[2] = system: HUVEC (angiogenin-induced tube formation); assay: HUVEC tube formation assay on Matrigel, angiogenin-induced; type: cell-based, human; conditions: 2 μM, angiogenin 1 μg/ml, 8 h, vs PBS control, N=5
Protocol: (§1) Figure 4 trT2-50m and peptides A103-Q159 (57aa) and K108-K133 (26aa) inhibit angiogenin- and VEGF-induced HUVEC tube formation on Matrigel Freshly isolated HUVECs were plated in a 96-well plate previously coated with Matrigel. (A): Cells were treated with either peptide A103-Q159, K108-K133 or K108-L123 (2μM) or PBS (control), in addition to angiogenin or VEGF (1 μg/ml). (B): tube formation was assessed using Image J, the results are represented as percent of control. […] (C): Cells were treated with trT2-50m (2μM) or PBS (control), in addition to angiogenin or VEGF (1 μg/ml).
(§2) Freshly isolated HUVEC were maintained in endothelial cell growth medium (EGM) supplemented with SingleQuots (EGM BulletKit CC-3124, Lonza). They were then plated in a 96-well plates (14 × 10^3 cells/well) previously coated with growth factor-depleted Matrigel (Becton-Dickinson, Bedford, MA) in M199 medium supplemented with 20% FBS, 1% glutamine, 1% antibiotic–antimycotic solution (Biological Industries) and 50 U/100 ml heparin (Biomedical Technologies Inc., Stoughton, MA). Cells were treated with trT2-50m (2 μM), peptides or PBS, in addition to angiogenin (R&D Systems, Inc. Minneapolis, MN), or VEGF (Protein Laboratories, Rehovot, Israel) (1 μg/ml each). After 8 h of incubation at 37°C, the plates were photographed and the extent of tube formation was counted using Image J (NIH, Bethesda, MD) software. […]

[3] = system: HUVEC (VEGF-induced tube formation); assay: HUVEC tube formation assay on Matrigel, VEGF-induced; type: cell-based, human; conditions: 2 μM, VEGF 1 μg/ml, 8 h, vs PBS control, N=5
Protocol: as §1, §2

HUVECs = assay: Immunofluorescence: localization and co-localization of peptide and angiogenin in HUVECs; type: cell-based, human; conditions: anti-angiogenin (red)
Protocol: Cells were cultured on PBS-covered slides in 12-well plates with 0.1% pork gelatin (Sigma-Aldrich) and were incubated with peptide K108-K133 or angiogenin. Cells were fixed with 3% Paraformaldehyde (PFA) (Merck Millipore, Dermstadt, Germany) containing 0.5% triton, washed three times with PBS and blocked with 5% donkey serum (Jackson ImmunoResearch). Rabbit anti-angiogenin (Merck Millipore) was added (1:100 dilution; prepared in 5% donkey serum) and incubated overnight at 4°C. After washing three times with TBST, the slides were incubated for 1 h with Alexa 488-conjugated anti-rabbit antibody (Invitrogen Life Technologies) and phalloidin tetramethylrhodamine B isothiocyanate–conjugated […] (Sigma-Aldrich), and then washed, and mounted with a mixture containing 30% mounting medium, 4′,6-diamidino-2-phenylindole (DAPI) (Santa Cruz Biotechnology Inc., Santa Cruz, CA) and 70% fluoromount (Sigma-Aldrich). The slides were viewed under a Leicactr4000 laser scanning confocal microscope.

CAM = assay: Ex ovo CAM angiogenesis assay; type: in vivo, chicken; conditions: 3 μg on filter paper disk every day for 4 days from day 8, vs PBS; N=3 for hRNASET2 and trT2-50, N=5 for peptides and PBS
Protocol: In this assay we used fertilized eggs cracked into a petri dish after […] of incubation in 37°C and 60% humidity. In the following days, the embryos developed a vascular network. Treatment began on the eighth day of incubation and was delivered drop-wise onto disks of Whatman paper that had been placed on the developing vascular regions. The treatment was performed every day for 4 days. The number of blood vessels around the treated disk was counted every day.
Fertilized chicken eggs were incubated horizontally at 37°C and humidity of 60 - 62% and cracked into Petri dishes at embryonic day 4. Incubation was continued under the same conditions. On day 8, sterile filter paper disks (5.5 mm in diameter) were layered on top of the CAM and soaked either with 5 μl PBS or 3 μg hRNASET2, trT2-50, peptide A103-Q159 or peptide K108-K133. Treatment was given every day for four days, then, the number of blood vessels around the treated disks was counted. (For hRNASET2 and trT2-50, N=3; for peptide A103-Q159, peptide K108-K133 and PBS, N=5).

CC[C@H](C)[C@H](NC(=O)CNC(=O)[C@H](CC(C)C)NC(=O)[C@H](CCCCN)NC(=O)[C@H](CC(C)C)NC(=O)[C@H](CC(C)C)NC(=O)[C@@H](NC(=O)[C@H](CO)NC(=O)[C@H](CC(N)=O)NC(=O)[C@H](CC(C)C)NC(=O)[C@H](CC(=O)O)NC(=O)[C@H](CC(C)C)NC(=O)[C@H](CCC(=O)O)NC(=O)[C@H](CCCNC(=N)N)NC(=O)[C@H](Cc1ccc(O)cc1)NC(=O)[C@H](CC(C)C)NC(=O)[C@H](CCC(=O)O)NC(=O)[C@H](CC(C)C)NC(=O)[C@H](CO)NC(=O)[C@H](CCCNC(=N)N)NC(=O)CNC(=O)[C@H](Cc1ccccc1)NC(=O)[C@H](Cc1ccc(O)cc1)NC(=O)[C@H](CCCCN)NC(=O)[C@@H](N)CCCCN)C(C)C)C(=O)N[C@@H](CCCCN)C(=O)O [Peptide K108-K133] showed a kon ([1]; HBS (10mM Hepes, 150mM NaCl, 3mM EDTA, 0.005% Polysorbate 20), association 4 min, dissociation 3 min, global fit BIAevaluation 3.2, read-out: association rate Ka) of 14200 M⁻¹ s⁻¹ and a koff ([1]; HBS (10mM Hepes, 150mM NaCl, 3mM EDTA, 0.005% Polysorbate 20), dissociation 3 min, global fit BIAevaluation 3.2, read-out: dissociation rate Kd) of 0.0458 s⁻¹.

For “Peptide K108-L123: peptide K108-L123 (16 aa) that failed to bind actin”, the “ability to bind actin (in words)” value (actin) was “failed to bind actin”, the “inhibition of angiogenin-induced tube formation (in words)” value [2] was “unable to inhibit tube formation” and the “inhibition of VEGF-induced tube formation (in words)” value [3] was “unable to inhibit tube formation”.

For “angiogenin: angiogenin (R&D Systems, Inc. Minneapolis, MN)”, the “localization of angiogenin in presence of peptide K108-K133” value (HUVECs; 2 and 8 h of incubation with the peptide and angiogenin) was “Same angiogenin localization was observed after 2 and 8 h” and the “localization of angiogenin in presence of peptide K108-K133” value (HUVECs; 10 min of incubation with the peptide and angiogenin) was “located in the nucleus, the cytoplasm surrounding the nucleus, on the actin fibers and outside the cell”.

With “hRNASET2: full-length human RNASET2, produced in CHO, T2BIOTECH Ltd” the “association rate Ka” value ([1]; HBS (10mM Hepes, 150mM NaCl, 3mM EDTA, 0.005% Polysorbate 20), association 4 min, dissociation 3 min, global fit BIAevaluation 3.2) was 2.40 × 10^3 (1/Ms), the “dissociation rate Kd” value ([1]; HBS (10mM Hepes, 150mM NaCl, 3mM EDTA, 0.005% Polysorbate 20), dissociation 3 min, global fit BIAevaluation 3.2) was 0.00346 s⁻¹ and the Kd ([1]; HBS, determined from kinetic analyses, BIAevaluation 3.2, read-out: dissociation constant KD) was 1440 nM. The “blood vessels around the treated disk” value (CAM) was “fewer blood vessels developed compared to the control”.
